The source of these data is paper PMC3570965 (Science translational medicine, 2012).

What is called half-life is the time in which the quantity being followed falls by half.

Read-outs that look alike come from different tables or passages of the source.

The subject of data set [1] is TG144 tumorgraft-bearing mice. In words: Serum calcium. It is filed as in vivo, NOD/SCID mice. Particulars: TG144, end of trial.
Data set [2] can be described thus: Pharmacokinetic analyses in NOD/SCID mice. Format: in vivo.
For data set [3], the system named is papillary RCC tumorgraft line (TG121). In words: Drug trial in papillary RCC tumorgraft line TG121. Particulars: dovitinib 30 mg/kg by gavage. Format: in vivo, NOD/SCID mice.
The conditions of data set [4]: cited from earlier work.
For data set [5], the system named is ccRCC tumorgraft lines. The data set is described as follows: Drug trials in subcutaneous ccRCC tumorgraft lines. It is filed as in vivo, NOD/SCID mice. Particulars: 4 ccRCC tumorgraft lines; dovitinib 30 mg/kg by gavage.
The subject of data set [6] is NSCLC cell line-derived xenograft. In words: NSCLC. Format: in vivo, mice. The settings on record: same erlotinib regimen (12.5 mg/kg by gavage every 12 h).
Data set [7] has as its system ccRCC. The settings on record: patients with ccRCC, randomized phase II trial; cited from earlier work.

Turning to `CN1CCN(c2ccc3nc(-c4c(N)c5c(F)cccc5[nH]c4=O)[nH]c3c2)CC1` [dovitinib], the “effect on paraneoplastic hypercalcemia (serum calcium)” value in data set [1] is on record as “inhibited the development of paraneoplastic hypercalcemia”. Besides, the “peak and overall exposures compared with humans” value in data set [2] (dovitinib 30 mg/kg daily by gavage, mice) is “within the range reported in humans”. Further, the “activity in papillary RCC tumorgraft line” value in data set [3] is recorded as “very active”. Also, in data set [4] (human, 500 mg PO qd, PK data at (D15), analyte Dovitinib, ref Kim, et al 2011), the “Terminal t1/2” value is reported as 21 h. The “effect on ccRCC tumorgraft growth” value in data set [5] is on record as “profoundly suppressed”.

With `CO[C@H]1C[C@@H]2CC[C@@H](C)[C@@](O)(O2)C(=O)C(=O)N2CCCC[C@H]2C(=O)O[C@H]([C@H](C)C[C@@H]2CC[C@@H](O)[C@H](OC)C2)CC(=O)[C@H](C)/C=C(\C)[C@@H](O)[C@@H](OC)C(=O)[C@H](C)C[C@H](C)/C=C/C=C/C=C/1C` [sirolimus], the “peak and overall exposures, fold higher than in humans” value in data set [2] (sirolimus 0.5 mg/kg intraperitoneally every 48 h, NOD/SCID mice vs humans) was 2-3 fold. The “share of circulating drug after temsirolimus administration” value in data set [4] (humans, after temsirolimus administration) is 75%. For the same molecule, the “therapeutic range (trough levels) in humans” value in data set [4] (humans) was 5 to 15 ng/mL.

With `C#Cc1cccc(Nc2ncnc3cc(OCCOC)c(OCCOC)cc23)c1` [erlotinib], the “effect on NSCLC cell line-derived xenograft growth” value in data set [6] is given as “profound effect”. Moreover, the “peak and overall exposures compared with humans” value in data set [2] (erlotinib 12.5 mg/kg by gavage every 12 h, mice) is given as “higher”. In data set [7], the “outcomes in combination with bevacizumab vs bevacizumab alone” value is listed as “failed to show improved outcomes”. The half-life in data set [4] (humans) is reported as 24 h.

Take `CCN(CC)CCNC(=O)c1c(C)[nH]c(/C=C2\C(=O)Nc3ccc(F)cc32)c1C` [sunitinib]: in data set [2] (sunitinib 10 mg/kg by gavage every 12 h, mice), the “peak exposures compared with humans” value is listed as “slightly higher than in humans”. Also, the “half-life compared with humans” value in data set [2] (sunitinib, mice vs humans) is on record as “much shorter in mice”.

Take `CO[C@H]1C[C@@H]2CC[C@@H](C)[C@@](O)(O2)C(=O)C(=O)N2CCCC[C@H]2C(=O)O[C@H]([C@H](C)C[C@@H]2CC[C@@H](OCCO)[C@H](OC)C2)CC(=O)[C@H](C)/C=C(\C)[C@@H](O)[C@@H](OC)C(=O)[C@H](C)C[C@H](C)/C=C/C=C/C=C/1C` [Everolimus]: in data set [4] (human, 10 mg PO qd, analyte Everolimus, mean ± SD, ref Awada et al., 2008), the Cmin is listed as 13.2 ± 7.2 ng/mL.

As for `CCNCCNC(=O)c1c(C)[nH]c(/C=C2\C(=O)Nc3ccc(F)cc32)c1C` [desethyl sunitinib], the “metabolite as share of total circulating drug” value is recorded as 38% in data set [2] (NOD/SCID mice, day 1, after sunitinib) and 13% in data set [4] (humans, day 1, after sunitinib, ref Table 6).
